Results on nine compounds are retold here after US7589065B2, “Catalysis of the cis/trans-isomerisation of secondary amide peptide compounds” (Max-Planck Gesellschaft zur Forderung der Wissenschaften, …, priority 2001, dated 2009).

In one data set the target is DnaK (Escherichia coli, UniProt P0A6Y8). In words: biochemical. As to the method:
(§1) RNAse T1 contains a Ser-Pro sequence with a cis conformation at the sequence site 38/39. […] In detail, the protein is unfolded by suitable additives and the renaturation rate is measured and registered after removal of the additives, e.g. by rapid dilution. As is shown (Scholz et al., Biol. chem. 1998, March; 379(3): 361-5), the exchange of the prolin 39 with an alanine (P39A) leads to a protein mutant whose foldback rate is […] influenced by this peptide bond. Added APIase, dependent on concentration, catalyses the isomerisation of this non-prolyl peptide bond and, thus, the foldback of the P39A mutant.
(§2) […] RNAse T1 P39A was incubated with 5 M guanidinium-Cl and 0.1 M Tris-HCl at pH 8 at 15° C. for 60 min. The foldback at 15° C. was started by a 40-fold dilution of the unfolded protein in foldback buffer (0.1 Tris-HCl, 50 mM KCl, 11 mM MgCl2) at pH 8. The foldback was determined as increase of the protein fluorescence at 320 nm (10 nm width of band) with excitation of 278 nm (1.5 nm width of band) with a Jobin-Yvon-Spex Fluoromax-2 fluorescence spectrometer.

In the next data set the target is T1, APIase activity of DnaK (Escherichia coli, UniProt P0A6Y8).
T1 construct: purchased SIGMA-ALDRICH CHEMIE GmbH, Germany
Kind of data set: Inhibition of the APIase activity of DnaK in the spectrophotometric Ala-Leu activity test. Format: biochemical. On the procedure:
The peptide bond of the substrate Ala-Leu is to about 99% in the trans conformation at pH 7.4. An increase of the proton concentration of the aqueous Ala-Leu solution to about 100 mM results in a shift of the equilibrium of the conformations to a higher content of the peptide with the cis conformation. […] The isomerisation rate can be measured when the substrate is subjected to a pH modification that has an influence on the cis/trans equilibrium of the substrate and when the rate of the pH modification is higher than the isomerisation rate of the substrate. In this context, the isomerisation rate corresponds to the sum of the individual rates cis to trans and trans to cis of the two conformation isomers of the substrate. In the present example, a so-called Stopped-Flow device from the company Applied Photophysics Ltd. (England) is used. This spectroscopic device makes a rapid mixture of two components and, subsequently, a collection of spectroscopic data, which is rapid and […], possible. Moreover, an accompanying software makes it possible for the rate constants (kobs) to be calculated while assuming a concentration/time law that corresponds to a so-called “first-order time law”. […]

A short description of data set [1]: Stopped-flow spectroscopic test of catalysis of the cis/trans isomerisation of Ala-Leu (APIase activity). Format: biochemical.
Excerpt: The peptide bond of the substrate Ala-Leu is to about 99% in the trans conformation at pH 7.4. […] The isomerisation rate can be measured when the substrate is subjected to a pH modification that has an influence on the cis/trans equilibrium of the substrate and when the rate of the pH modification is higher than the isomerisation rate of the substrate. In this context, the isomerisation rate corresponds to the sum of the individual rates cis to trans and trans to cis of the two conformation isomers of the substrate. In the present example, a so-called Stopped-Flow device from the company Applied Photophysics Ltd. (England) is used. This spectroscopic device makes a rapid mixture of two components and, subsequently, a collection of spectroscopic data, which is rapid and time-independent, possible. Moreover, an accompanying software makes it possible for the rate constants (kobs) to be calculated while assuming a concentration/time law that corresponds to a so-called “first-order time law”. For the detection of the catalysis, the following assay was selected: • Stock solution Ala-Leu (Bachem, Switzerland) 10 mM dissolved in Aqua dest. with pH 2.0, adjusted by means of HCl • Buffer solution: 12.5 mM Tris, 50 mM KCl, 11 mM MgCl2 with HCl adjusted to pH 8.8 DnaK (SIGMA-ALDRICH CHEMIE GmbH, Germany), or produced in a molecular biological way
After mixing the components in the Stopped-Flow device, the reaction solution had the following concentrations: 1.66 mM Ala-Leu, 10.4 mM Tris, 41.6 mM KCl, 9.2 mM MgCl2. The pH was 7.6. All the solutions were kept constant at a temperature of 25° C.
The thickness of the coating of the silica cuvets was 2 mm, the measuring wave length was 220 nm.
The following solutions were used: • Buffer solution: 12.5 mM Tris, 50 mM KCl, 11 mM MgCl2. • Substrate solution: 20 mM Ala-Leu, dissolved in Aqua dest. at pH 2.0. • DnaK stock solution: 20 μM in buffer solution a
The pH of the solution in the cuvet was 7.3 each. The error lines indicated result from three independent measurements for the determination of the rate constant kobs with a DnaK concentration.
In order to establish whether Cyp18 catalyses the cis/trans isomerisation of the dipeptide Ala-Leu, the isomerisation rate was analysed in the presence of up to 8.4 μM Cyp18: • Human Cyp18 was either bought (SIGMA-ALDRICH CHEMIE GmbH, Germany) or produced as recombinant enzyme (E. coli cultures). The cyclophilin concentration of the cyclophilin stock solution of 1.14 mM was determined by means of titration against the cyclophilin inhibitor cyclosporin A (SIGMA-ALDRICH CHEMIE GmbH, Germany). The substrate Ala-Leu (BACHEM, Switzerland) used was produced as 10 mM stock solution in water with a pH of 2.0. The buffer solution used contained a mixture of the following chemicals: 12 mM Tris, 50 mM KCl, 11 mM MgCI2 and was adjusted with HCl to a pH of 8.8. The measurement of the isomerisation rate of the substrate took place with the Stopped-Flow-Photometer (Applied Photophysics Ltd., England) at 25°C. with 228 nm using 1 cm quartz cuvets. By adding the substrate to the mixture of buffer and Cyp18, solutions were produced in the cuvet with Cyp18 concentrations of 0, 208, 416, 625, 833 and 8,330 nM and 1.66 mM Ala-Leu each with a pH of 7.9.
Data set [2] in a line: 2D 1H NMR exchange (NOESY) measurement of cis/trans isomerisation in the pentapeptide. Format: biochemical. The following applies: for relative intensity of the cross signal of the peptide bond Ala-Tyr / relative intensity of the cross signal of the peptide bond Tyr-Ala: 25 mM pentapeptide, pH 7.1, 278° K; for relative intensity of the cross signal of the peptide bond Ala-Tyr: no addition 3.50 ± 0.51; for relative intensity of the cross signal of the peptide bond Tyr-Ala: no addition 3.89 ± 0.32. The source says: A further possibility, only described in 1998, is the determination of the cis/trans isomerisation rate of secondary amide peptide bonds containing aromatic amino acids by means of 2D 1H NMR exchange experiments (Scherer G. et al., 1998, JACS 120:5568-5574). In Example 8, this NMR method is used to determine a catalytic acceleration of the cis/trans isomerisation of the peptide bonds Ala-Tyr and Tyr-Ala within the pentapeptide Ala-Ala-Tyr-Ala-Ala. The acceleration is accomplished by catalytic amounts of DnaK.
NMR Device: Bruker DRX-500, Equipped with z-gradient
• FIG. 8: The alanine methyl region from the two-dimensional exchange 1H-NMR spectrum of 25 mM Ala-Ala-Tyr-Ala-Ala in 25 mM Tris, 11 mM MgCl2, 50 mM KCl, 9:1H2O:D2O, pH 7.1 at 278° K. The mixing time of the phase-sensitive NOESY was 330 ms. Each FID had 184 scans. The amount of data from t1×t2=512×8192 points covered a spectral range of 5501 Hz×5482 Hz. The correction of the base line was carried out by adjustment with a polynom of fifth order in the F2 dimension. […] The experiment was carried out under identical conditions as described above. In addition, 20 μM DnaK was contained in the measuring solution.
In a further analysis of the method of the two-dimensional NOESY experiment illustrated in Example 8, the cross signals can be quantified by means of common mathematical techniques.

In another data set the test system is RNAse T1 P39A. In words: Foldback of RNAse T1 P39A catalysed by APIase. The following applies: 1 μM DnaK, 15° C., pH 8; without APIase 6.67×10^−4. Format: biochemical. As to the method:
as §1, §2

For data set [3] the following is noted: DnaK 250 and 1,000 nM, 10° C., pH 7.8.
Description: The details of Example 5 are described as follows: • Measuring device: Spectrophotometer Diodenarray HP8452A (Hewlett Packard, USA) • Substrate: Suc-Ala-Phe-Pro-Phe-NHNp (SEQ ID NO:2) (BACHEM, Switzerland) • Protease: Chymotrypsin (Merck, Germany) • Measure temperature: 10° C. • Buffer: 35 mM Hepes, pH 7.8 • Protease solution for use: 5 mg protease per ml buffer • Substrate solution for use: 35 mg substrate dissolved in 1 ml DMSO • DnaK solution for use: 30 μM in buffer • Cuvet: 1 ml quartz cuvet, thickness of layer 1 cm • Measuring wave length: 390 nm
Process: After attemperating a mixture of substrate, DnaK and buffer, the reaction is started by rapid addition and homogenous distribution of the protease solution for use. In this way, a chymotrypsin concentration of 0.83 mg/ml is achieved in the cuvet. By means of the substrate amount contained in the cuvet, a final extinction of about 0.43 is accomplished after complete turnover of the substrate. The concentrations of DnaK contained in the cuvet were 0.250 and 1,000 nM.

Sequence of DnaK (P0A6Y8 whole entry): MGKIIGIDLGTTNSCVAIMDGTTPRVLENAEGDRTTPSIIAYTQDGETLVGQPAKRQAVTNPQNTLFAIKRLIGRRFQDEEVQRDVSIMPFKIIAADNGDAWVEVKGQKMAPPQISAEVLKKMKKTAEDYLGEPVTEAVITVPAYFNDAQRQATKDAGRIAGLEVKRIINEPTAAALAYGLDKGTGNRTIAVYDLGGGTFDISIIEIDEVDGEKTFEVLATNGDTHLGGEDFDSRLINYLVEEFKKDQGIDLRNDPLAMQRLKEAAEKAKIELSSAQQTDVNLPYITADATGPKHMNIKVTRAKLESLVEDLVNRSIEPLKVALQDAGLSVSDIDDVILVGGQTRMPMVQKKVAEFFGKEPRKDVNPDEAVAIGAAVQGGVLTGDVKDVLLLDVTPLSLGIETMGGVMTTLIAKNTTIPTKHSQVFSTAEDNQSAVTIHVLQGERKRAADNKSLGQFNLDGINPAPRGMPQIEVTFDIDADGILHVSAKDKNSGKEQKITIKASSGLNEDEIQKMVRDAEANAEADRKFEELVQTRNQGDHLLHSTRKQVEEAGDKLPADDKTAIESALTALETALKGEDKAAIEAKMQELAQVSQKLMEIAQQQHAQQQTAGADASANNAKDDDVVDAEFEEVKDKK
T1 sequence (P0A6Y8 whole entry): as above

On to `CCCCCCCCCCCC(=O)NC(CC(=O)O)C(=O)O` (stereo not shown) [28/B7], for which the IC50 (in general, the concentration that inhibits the measured activity by half) against DnaK was 177 µM.

Regarding `CCCCCCCCCCCC(=O)NC(Cc1c[nH]c2ccccc12)C(=O)O` (stereo not shown) [28/C8], the concentration for half-maximal inhibition (IC50) on DnaK came to 55.3 µM.

`CCCCCCCC/C=C\CCCCCCCC(=O)NC(CC(C)C)C(=O)NCCc1ccccc1` (stereo not shown) [30/B4] yielded a half-inhibitory concentration (IC50) on DnaK of 7.5 µM.

`CCCCCCCCCCCCCCCC(=O)NCc1ccc(C(=O)NCC2CCC(C(=O)O)CC2)cc1` (stereo not shown) [37/B11] gave an IC50 at DnaK of 5.9 µM.

`CSCC[C@H](NC(=O)[C@H](CC(C)C)NC(=O)CNC(=O)[C@H](Cc1ccccc1)NC(=O)[C@H](Cc1ccccc1)NC(=O)[C@H](CCC(N)=O)NC(=O)[C@H](CCC(N)=O)NC(=O)[C@@H]1CCCN1C(=O)[C@H](CCCCN)NC(=O)[C@@H]1CCCN1C(=O)[C@@H](N)CCCN=C(N)N)C(N)=O` [substance P] registered an IC50 on APIase activity of DnaK of 76 ± 16 µM.

With “Cyp18: human peptidyl-prolyl cis/trans isomerase of the cyclophilin family, EC 5.2.1.8, P05092”, in data set [1] (Cyp18 0 to 8,330 nM, independent of concentration, 1.66 mM Ala-Leu, pH 7.9, 25° C., 228 nm), the “rate constants kobs of the isomerisation of Ala-Leu” value is “about 0.43±0.03 s^−1”. Besides, the “acceleration of the cis to trans reaction of Ala-Leu (in words)” value in data set [1] (up to 8.4 μM Cyp18, observation period 20 seconds) is listed as “no acceleration of the cis to trans reaction could be observed”.

Turning to “DnaK: protein with APIase activity, bought from SIGMA-ALDRICH or produced in a molecular biological way”, the “rate constant (kobs) of the cis/trans isomerisation of Ala-Leu” value in data set [1] (624 nM DnaK, 1.66 mM Ala-Leu, pH 7.6, 25° C., non-catalysed reaction 0.36 s^−1) is 0.55 s⁻¹. In data set [1] (624 nM DnaK, without DnaK about 20 seconds), the “time until the conformation equilibrium occurs” value is “less than 10 seconds”. Besides, in data set [2] (20 μM DnaK), the “change of the relative intensity of the Ala-Tyr cross signal (in words)” value is “nearly doubles” and the “influence on the cis/trans isomerisation rate of the Tyr-Ala peptide bond (in words)” value is reported as “no influence”. Besides, in data set [2] (20 μM addition), the “relative intensity of the cross signal of the peptide bond Ala-Tyr” value turned out to be 6.37 ± 0.57 and the “relative intensity of the cross signal of the peptide bond Tyr-Ala” value was found to be 3.39 ± 0.45. The “rate constant of the foldback of RNAse T1 P39A” value in the data set on RNAse T1 P39A is reported as 9.77×10^−4 -s. The “influence on the peptidyl-prolyl cis/trans isomerisation rate of the substrate (in words)” value in data set [3] is on record as “did not show a visible influence on the cis/trans isomerisation rate of the substrate”.

“FKBP12: peptidyl-prolyl cis/trans isomerase from SIGMA-ALDRICH”: in data set [2] (20 μM addition), the “catalysis of the cis/trans isomerisation of the Ala-Tyr and Tyr-Ala peptide bonds (in words)” value is given as “neither catalyse”; the “relative intensity of the cross signal of the peptide bond Ala-Tyr” value is 3.94 ± 0.87; the “relative intensity of the cross signal of the peptide bond Tyr-Ala” value was found to be 2.68 ± 0.75.

Regarding “bovine serum albumin: purified reference protein (SIGMA-ALDRICH)”, in data set [1] (1 μM purified protein instead of Cyp18), the “catalysis of the cis/trans isomerisation of the dipeptide Ala-Leu (in words)” value is on record as “not able to catalyse the cis/trans isomerisation of the dipeptide”.
